# Experimental data as given in ChEMBL document CHEMBL1201862, “PubChem BioAssay data set” (2004).
#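 Each compound was tested at five concentrations against cells in 96-well plates for 48 hours. GI50 = concentration required for 50% inhibition of growth.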 The source made the active and inactive calls. Rule as the data show it: active = GI50 up to about 1.1 µM and inactive = higher.
# Legend:
# Experiment in all cases: DTP human tumour cell line panel, 48 h
# 786-0 = system: 786-0
# CCRF-CEM = system: CCRF-CEM
# COLO 205 = system: COLO 205
# HOP-92 = system: HOP-92
# K562 = system: K562
# KM12 = system: KM12
# LOX IMVI = system: LOX IMVI
# MCF7 = system: MCF7
# NCI-H460 = system: NCI-H460
# OVCAR-5 = system: OVCAR-5
# OVCAR-8 = system: OVCAR-8
# RXF 393 = system: RXF 393
# SF-268 = system: SF-268
# SF-539 = system: SF-539
# SK-MEL-2 = system: SK-MEL-2
# SNB-19 = system: SNB-19
# TK-10 = system: TK-10
# UACC-62 = system: UACC-62
# SK-OV-3 = system: SK-OV-3
Structure (SMILES),GI50 (786-0),GI50 (CCRF-CEM),GI50 (COLO 205),GI50 (HOP-92),GI50 (K562),GI50 (KM12),GI50 (LOX IMVI),GI50 (MCF7),GI50 (NCI-H460),GI50 (OVCAR-5),GI50 (OVCAR-8),GI50 (RXF 393),GI50 (SF-268),GI50 (SF-539),GI50 (SK-MEL-2),GI50 (SNB-19),GI50 (TK-10),GI50 (UACC-62),GI50 (SK-OV-3)
CC(=O)OCC(C)C1=C(O)C(=O)C2(C)C/C=C(/C)CC/C=C(\C)CCC(O)C(C)CCC12 (stereo not given),16.9 µM (inactive),21.5 µM (inactive),17.1 µM (inactive),18 µM (inactive),14.1 µM (inactive),14.2 µM (inactive),18.1 µM (inactive),24.9 µM (inactive),14.7 µM (inactive),17.3 µM (inactive),18.1 µM (inactive),12.3 µM (inactive),18 µM (inactive),16.3 µM (inactive),20.7 µM (inactive),18.4 µM (inactive),19.6 µM (inactive),18.8 µM (inactive),
COc1c(C)c2nc3ccccc3nc2c2c(O)ccnc12,16.9 µM (inactive),> 100 µM (inactive),46.1 µM (inactive),36.4 µM (inactive),> 100 µM (inactive),> 100 µM (inactive),> 100 µM (inactive),> 100 µM (inactive),53.5 µM (inactive),> 100 µM (inactive),50.5 µM (inactive),19.3 µM (inactive),68.7 µM (inactive),54.2 µM (inactive),> 100 µM (inactive),36.6 µM (inactive),64.4 µM (inactive),,75.7 µM (inactive)
O=C(O)CCC(=O)N1C/C(=C\c2ccccc2)C(=O)/C(=C/c2ccccc2)C1,2.52 µM (inactive),1.03 µM (active),3.47 µM (inactive),16.3 µM (inactive),1.19 µM (inactive),1.82 µM (inactive),1.68 µM (inactive),,8.22 µM (inactive),15 µM (inactive),3.09 µM (inactive),3.67 µM (inactive),2.48 µM (inactive),1.82 µM (inactive),1.82 µM (inactive),3.16 µM (inactive),9.1 µM (inactive),1.26 µM (inactive),12.7 µM (inactive)
CCOC(=O)CC1=N/C(=N/c2cc(Cl)ccc2Cl)SC1,> 100 µM (inactive),76.9 µM (inactive),> 100 µM (inactive),> 100 µM (inactive),42.5 µM (inactive),> 100 µM (inactive),70.5 µM (inactive),,> 100 µM (inactive),> 100 µM (inactive),> 100 µM (inactive),> 100 µM (inactive),> 100 µM (inactive),> 100 µM (inactive),> 100 µM (inactive),> 100 µM (inactive),> 100 µM (inactive),> 100 µM (inactive),> 100 µM (inactive)
O=C(/C=C/c1c(O)ccc2ccccc12)c1ccccc1,63.5 µM (inactive),35.6 µM (inactive),> 100 µM (inactive),> 100 µM (inactive),58.5 µM (inactive),> 100 µM (inactive),19.3 µM (inactive),,> 100 µM (inactive),> 100 µM (inactive),> 100 µM (inactive),> 100 µM (inactive),> 100 µM (inactive),> 100 µM (inactive),> 100 µM (inactive),> 100 µM (inactive),> 100 µM (inactive),> 100 µM (inactive),> 100 µM (inactive)
C/C(=N/NC(=O)c1ccccc1O)c1ccc(/C(C)=N\NC(=O)c2ccccc2O)c2nc3cc(C)c(C)cc3nc12,> 100 µM (inactive),> 100 µM (inactive),> 100 µM (inactive),54.7 µM (inactive),> 100 µM (inactive),> 100 µM (inactive),> 100 µM (inactive),,> 100 µM (inactive),> 100 µM (inactive),> 100 µM (inactive),> 100 µM (inactive),> 100 µM (inactive),> 100 µM (inactive),> 100 µM (inactive),> 100 µM (inactive),> 100 µM (inactive),> 100 µM (inactive),> 100 µM (inactive)
COc1ccc(C2=Nc3ccccc3NC(=O)C2)cc1,33.3 µM (inactive),41.9 µM (inactive),38.3 µM (inactive),21 µM (inactive),> 100 µM (inactive),> 100 µM (inactive),18.3 µM (inactive),,31.1 µM (inactive),> 100 µM (inactive),40.5 µM (inactive),22.3 µM (inactive),23.4 µM (inactive),29.4 µM (inactive),51.5 µM (inactive),28.2 µM (inactive),27.9 µM (inactive),> 100 µM (inactive),21.5 µM (inactive)
Cc1cc2c(c(N)c1C)C(=O)c1ccccc1C2=O,20.2 µM (inactive),> 100 µM (inactive),> 100 µM (inactive),18 µM (inactive),> 100 µM (inactive),11.1 µM (inactive),17.7 µM (inactive),,34.5 µM (inactive),> 100 µM (inactive),20 µM (inactive),29 µM (inactive),25.5 µM (inactive),12.5 µM (inactive),66.8 µM (inactive),27.9 µM (inactive),37.5 µM (inactive),5.12 µM (inactive),17.5 µM (inactive)
O=C(CSCC(=O)N/N=C\c1cccc([N+](=O)[O-])c1)N/N=C\c1cccc([N+](=O)[O-])c1,18.2 µM (inactive),> 100 µM (inactive),> 100 µM (inactive),32.4 µM (inactive),,> 100 µM (inactive),53.1 µM (inactive),38.5 µM (inactive),69.2 µM (inactive),,31.3 µM (inactive),49.8 µM (inactive),39.9 µM (inactive),24 µM (inactive),37.3 µM (inactive),18 µM (inactive),17.4 µM (inactive),70.8 µM (inactive),52.1 µM (inactive)
c1ccc(C2C3=C(Nc4ncnn42)c2ccccc2C3)cc1 (stereo not given),25.4 µM (inactive),15.5 µM (inactive),11 µM (inactive),21.8 µM (inactive),7.93 µM (inactive),4.68 µM (inactive),15.6 µM (inactive),,12.1 µM (inactive),46.8 µM (inactive),30.8 µM (inactive),21.1 µM (inactive),20 µM (inactive),11.4 µM (inactive),11.6 µM (inactive),14.9 µM (inactive),35 µM (inactive),4.99 µM (inactive),13.2 µM (inactive)
COc1cc(C2NCCC(c3ccccc3)(c3ccccc3)N2)cc(OC)c1OC (stereo not given),22.6 µM (inactive),39.3 µM (inactive),16.1 µM (inactive),3.52 µM (inactive),,12.6 µM (inactive),13.5 µM (inactive),20.1 µM (inactive),9.59 µM (inactive),,60.4 µM (inactive),42.7 µM (inactive),52.4 µM (inactive),11.3 µM (inactive),,55.7 µM (inactive),9.31 µM (inactive),25.2 µM (inactive),78 µM (inactive)
